Measurements reported in article PMC10649961, “Novel Mitochondria-Targeted Amphiphilic Aminophosphonium Salts and Lipids Nanoparticles: Synthesis, Antitumor Activity and Toxicity” (Nanomaterials, 2023).

Assays:
[1] = test system: A549; assay: cells; conditions: Homo sapiens, A549, 48 h, read-out: Cytotoxic Effects (IC50)
[2] = test system: PANC-1; conditions: calculated relative to the cell line Chang liver (b)
[3] = test system: M-HeLa; assay: cells; conditions: Homo sapiens, 48 h, read-out: Cytotoxic Effects (IC50)
[4] = test system: Bacillus cereus ATCC 10702 NCTC 8035; assay: Antimicrobial activity, serial microdilutions, Bc; assay type: cell-based; design: key to Minimum bactericidal and fungicidal concentrations (MBC, MFC): – means non-active; conditions: Bc
In short: (§1)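 Broth microdilution, triplicate; media: Mueller-Hinton (bacteria), Sabouraud (C. albicans). MRSA-1 = patient isolate, chronic tonsillitis.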

[5] = test system: SK-OV-3; conditions: reference normal cell line not marked at the place (ns cells)
[6] = test system: SK-OV-3; assay: cells; conditions: Homo sapiens, SK-OV-3, 48 h, read-out: Cytotoxic Effects (IC50)
[7] = test system: Pseudomonas aeruginosa ATCC 9027; assay: Antimicrobial activity, serial microdilutions, Pa; assay type: cell-based; design: key to Minimum Inhibitory Concentration (MIC) / Minimum bactericidal and fungicidal concentrations (MBC, MFC): – means non-active
In short: as §1

[8] = test system: Escherichia coli ATCC 25922; assay: Antimicrobial activity, serial microdilutions, Ec; assay type: cell-based; design: key to Minimum Inhibitory Concentration (MIC) / Minimum bactericidal and fungicidal concentrations (MBC, MFC): – means non-active
In short: as §1

[9] = test system: HuTu 80; conditions: calculated relative to the cell line Chang liver (b)
[10] = test system: DU-145; conditions: calculated relative to the cell line Chang liver (b)
[11] = test system: HuTu 80; assay: cells; conditions: Homo sapiens, HuTu80, 48 h, read-out: Cytotoxic Effects (IC50)
[12] = test system: T98G; conditions: calculated relative to the cell line Chang liver (b)
[13] = test system: M-HeLa; conditions: calculated relative to the cell line Chang liver (b)
[14] = test system: Candida albicans ATCC 10231; assay: Antimicrobial activity, serial microdilutions, Ca; assay type: cell-based; design: key to Minimum Inhibitory Concentration (MIC) / Minimum bactericidal and fungicidal concentrations (MBC, MFC): – means non-active; conditions: Ca
In short: as §1

[15] = test system: DU-145; assay: cells; conditions: Homo sapiens, DU-145, 48 h, read-out: Cytotoxic Effects (IC50), DU-145, MTT assay, 48 h
[16] = test system: MRSA-1; assay: Antimicrobial activity, serial microdilutions, MRSA-1; assay type: cell-based, S. aureus; conditions: Staphylococcus aureus
In short: as §1

[17] = test system: Enterococcus faecalis ATCC 29212; assay: Antimicrobial activity, serial microdilutions, Ef; assay type: cell-based; design: key to Minimum Inhibitory Concentration (MIC) / Minimum bactericidal and fungicidal concentrations (MBC, MFC): – means non-active
In short: (§2)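 Compounds were serially diluted in broth: Mueller-Hinton for the bacterial strains, Sabouraud for the yeast. Each determination was done in triplicate.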

[18] = test system: MCF-7; assay: cells; conditions: Homo sapiens, MCF7, 48 h, read-out: Cytotoxic Effects (IC50)
[19] = test system: Hep G2; assay: cells; conditions: Homo sapiens, HepG2, 48 h, read-out: Cytotoxic Effects (IC50)
[20] = test system: Staphylococcus aureus ATCC 6538 P FDA 209P; assay: Antimicrobial activity, serial microdilutions, Sa; assay type: cell-based; conditions: Staphylococcus aureus
In short: as §2

[21] = test system: A549; conditions: reference normal cell line not marked at the place (ns cells)
[22] = test system: PANC-1; assay: cells; conditions: Homo sapiens, PANC-1, 48 h, read-out: Cytotoxic Effects (IC50)
[23] = test system: T98G; assay: cells; conditions: Homo sapiens, 48 h, read-out: Cytotoxic Effects (IC50)
[24] = test system: HuTu 80 cells; assay: Cell cycle analysis, propidium iodide flow cytometry; assay type: cell-based, human; conditions: HuTu 80, IC50, 48 h, compared with the control
Procedure: The DNA content and cell-cycle distribution after compounds 4b, 5b, 6a, and 8 IC50 concentrations were estimated by flow cytometry. After washing with PBS, treated cells were suspended in 150 μL of PBS, then 0.5 mL of phosphate-citrate buffer (0.05 M, pH 4.0) was added, and the suspension was incubated at room temperature for 5 min to facilitate the extraction of low-molecular-weight DNA. Following centrifugation, the cells were resuspended in 150 μL DNA staining solution (20 μg/mL propidium iodide, 200 μg/mL […]) and incubated in the CO2 incubator (37 °C for 30 min). The distribution of the cell cycle was determined by fluorescence analysis of HuTu 80 cells stained with propidium iodide using Guava easyCyte (Guava easyCyte).

[25] = test system: MCF-7; conditions: calculated relative to the cell line Chang liver (b)
[26] = test system: PC3; conditions: reference normal cell line not marked at the place (ns cells)
[27] = test system: MRSA-2; assay: Antimicrobial activity, serial microdilutions, MRSA-2; assay type: cell-based, S. aureus; conditions: Staphylococcus aureus
In short: as §2

[28] = test system: Hep G2; conditions: calculated relative to the cell line Chang liver (b)
[29] = read-out: Minimum Inhibitory Concentration (MIC)
[30] = read-out: Minimum bactericidal and fungicidal concentrations (MBC, MFC)

`CCCCCCCC[P+](c1ccccc1)(N(CC)CC)N(CC)CC` [5b, Bis(diethylamino)(octyl)(phenyl)phosphonium iodide] was tested, and the IC50 [1] was 20 ± 1.6 µM, the “selectivity index (SI)” value [2] was 3.3 and the IC50 [3] was 1.8 ± 0.1 µM. For the same compound, the MIC ([4]; Bacillus cereus, read-out: Minimum Inhibitory Concentration (MIC)) was 7.8 ± 0.6 µM, the “Minimum bactericidal and fungicidal concentrations (MBC, MFC)” value [4] was “–” and the “selectivity index (SI)” value [5] was “ns (ns—no selectivity)”. The IC50 [6] was 25.6 ± 1.8 µM, the “Minimum bactericidal and fungicidal concentrations (MBC, MFC)” value [7] was “–” and the MIC ([7]; Pseudomonas aeruginosa, ATCC9027, read-out: Minimum Inhibitory Concentration (MIC)) was 500 ± 46 µM. The “Minimum Inhibitory Concentration (MIC)” value [8] was “–”, the MBC ([8]; Escherichia coli, ATCC25922, read-out: Minimum bactericidal and fungicidal concentrations (MBC, MFC)) was 500 ± 49 µM and the “selectivity index (SI)” value [9] was 1.0. For the same compound, the “selectivity index (SI)” value [10] was 2.0, the IC50 [11] was 4 ± 0.3 µM and the “selectivity index (SI)” value [12] was 1.0. For the same compound, the “selectivity index (SI)” value [13] was 2.2, the “Minimum Inhibitory Concentration (MIC)” value [14] was “–” and the “Minimum bactericidal and fungicidal concentrations (MBC, MFC)” value [14] was “–”. It also gave an IC50 [15] of 2 ± 0.1 µM, an MIC [16, 29] of 15.6 ± 1.2 µM and an MBC [16, 30] of 500 ± 48 µM. The “Minimum bactericidal and fungicidal concentrations (MBC, MFC)” value [17] was “–”, the MIC ([17]; Enterococcus faecalis, ATCC29212, read-out: Minimum Inhibitory Concentration (MIC)) was 125 ± 11 µM and the IC50 [18] was 2.6 ± 0.2 µM. The IC50 [19] was 2.9 ± 0.3 µM, the MIC [20, 29] was 7.8 ± 0.6 µM and the MBC [20, 30] was 250 ± 20 µM. For the same compound, the “selectivity index (SI)” value [21] was “ns (ns—no selectivity)”, the IC50 [22] was 1.2 ± 0.1 µM and the IC50 [23] was 4.3 ± 0.3 µM. The “effect on cell cycle (in words)” value [24] was “significant delay of cells in the G0/G1 phase”, the “selectivity index (SI)” value [25] was 1.5 and the “selectivity index (SI)” value [26] was “ns (ns—no selectivity)”. The MIC [27, 29] was 15.6 ± 1.2 µM, the MBC [27, 30] was 250 ± 20 µM and the “selectivity index (SI)” value [28] was 1.4.
